system: HCV pseudoparticles (genotype 1a HCV E1 and E2 envelope, H77C isolate); assay: microbe, parasite or virus in culture; type: cell-based; details: Hepatitis C virus, Huh-7, 48 h, HCV pseudoparticle infection of Huh7 cells, luciferase 2 days after infection; average of duplicates

Structure (SMILES)	EC50 [nM]
CC(C)(CNC(=O)C(=O)N1CCc2cc(F)ccc21)CNC(=O)c1ccc(Nc2nc(NC3(c4ccc(Cl)cc4)CC3)nc(OCC(F)(F)F)n2)cc1 [Compound 1585]	0.03
CC(C)(CNC(=O)C(=O)Nc1ccc(-c2ccc(C(F)(F)F)cc2)cc1)CNC(=O)c1ccc(Nc2nc(NC3(c4ccc(Cl)cc4)CC3)nc(OCC(F)(F)F)n2)cc1 [Compound 1594]	0.05
Cn1cnnc1-c1ccc(NC(=O)C(=O)NCC(C)(C)CNC(=O)c2ccc(Nc3nc(NC4(c5ccc(Cl)cc5)CC4)nc(OCC(F)(F)F)n3)cc2)cc1 [Compound 1601]	0.03
CC(=O)c1ccc(NC(=O)C(=O)NCC(C)(C)CNC(=O)c2ccc(Nc3nc(NC4(c5ccc(Cl)cc5)CC4)nc(OCC(F)(F)F)n3)cc2)cc1 [Compound 1603]	0.04
C=Cc1ccc(NC(=O)C(=O)NCC(C)(C)CNC(=O)c2ccc(Nc3nc(NC4(c5ccc(Cl)cc5)CC4)nc(OCC(F)(F)F)n3)cc2)cc1 [Compound 1604]	0.02

same assay, conditions: Hepatitis C virus, Huh-7, 48 h, HCV pseudoparticles (genotype 1a, H77C) in Huh7 cells; average of duplicate; luciferase 2 days after infection

Structure (SMILES)	EC50 [nM]
CONC(=O)C(=O)NCC(C)(C)CNC(=O)c1ccc(Nc2nc(NC3(c4ccc(Cl)cc4)CC3)nc(OCC(F)(F)F)n2)cc1 [Compound 3002]	0.044
Cc1cc(NC(=O)C(=O)NCC(C)(C)CNC(=O)c2ccc(Nc3nc(NC4(c5ccc(Cl)cc5)CC4)nc(OCC(F)(F)F)n3)cc2)sn1 [Compound 3010]	0.014
CC(C)(CNC(=O)C(=O)NC1(c2ccc(F)cc2)CC1)CNC(=O)c1ccc(Nc2nc(NC3(c4ccc(Cl)cc4)CC3)nc(OCC(F)(F)F)n2)cc1 [Compound 3013]	0.066
CC(C)(CNC(=O)C(=O)NS(=O)(=O)c1ccccc1)CNC(=O)c1ccc(Nc2nc(NC3(c4ccc(Cl)cc4)CC3)nc(OCC(F)(F)F)n2)cc1 [Compound 3021]	0.73

same assay, conditions: Hepatitis C virus, Huh-7, 48 h, read-out: Activity (EC50 class), HCV pseudoparticle infection of Huh7 cells, luciferase 2 days after infection; EC50 expressed as class A/B

Structure (SMILES)	EC50 [nM]
CC(C)(CNC(=O)C(=O)Nc1ccc(Cc2ccccc2)cc1)CNC(=O)c1ccc(Nc2nc(NC3(c4ccc(Cl)cc4)CC3)nc(OCC(F)(F)F)n2)cc1 [Compound 1579]	0.01 to 10
COc1cccc(-c2ccc(NC(=O)C(=O)NCC(C)(C)CNC(=O)c3ccc(Nc4nc(NC5(c6ccc(Cl)cc6)CC5)nc(OCC(F)(F)F)n4)cc3)cc2)c1 [Compound 1581]	0.01 to 10
CC(C)(CNC(=O)C(=O)Nc1cccc(-c2ccccc2)c1)CNC(=O)c1ccc(Nc2nc(NC3(c4ccc(Cl)cc4)CC3)nc(OCC(F)(F)F)n2)cc1 [Compound 1582]	0.01 to 10
CCc1ccc(NC(=O)C(=O)NCC(C)(C)CNC(=O)c2ccc(Nc3nc(NC4(c5ccc(Cl)cc5)CC4)nc(OCC(F)(F)F)n3)cc2)cc1 [Compound 1583]	0.01 to 10
CC(C)(CNC(=O)C(=O)Nc1ccc(C2CCCCC2)cc1)CNC(=O)c1ccc(Nc2nc(NC3(c4ccc(Cl)cc4)CC3)nc(OCC(F)(F)F)n2)cc1 [Compound 1584]	0.01 to 10
CC(C)(CNC(=O)C(=O)N1CCc2cc(F)ccc21)CNC(=O)c1ccc(Nc2nc(NC3(c4ccc(Cl)cc4)CC3)nc(OCC(F)(F)F)n2)cc1 [Compound 1585]	0.01 to 10
CC(C)(CNC(=O)C(=O)Nc1cccc(-c2ccc(Cl)cc2)c1)CNC(=O)c1ccc(Nc2nc(NC3(c4ccc(Cl)cc4)CC3)nc(OCC(F)(F)F)n2)cc1 [Compound 1586]	0.01 to 10
CC(C)(CNC(=O)C(=O)Nc1ccc(-c2cccc(Cl)c2)cc1)CNC(=O)c1ccc(Nc2nc(NC3(c4ccc(Cl)cc4)CC3)nc(OCC(F)(F)F)n2)cc1 [Compound 1588]	0.01 to 10
CC(C)c1ccc(NC(=O)C(=O)NCC(C)(C)CNC(=O)c2ccc(Nc3nc(NC4(c5ccc(Cl)cc5)CC4)nc(OCC(F)(F)F)n3)cc2)cc1 [Compound 1589]	0.01 to 10
CC(C)(CNC(=O)C(=O)Nc1ccc(-c2ccccc2)cc1)CNC(=O)c1ccc(Nc2nc(NC3(c4ccc(Cl)cc4)CC3)nc(OCC(F)(F)F)n2)cc1 [Compound 1590]	0.01 to 10
CCc1cccc(NC(=O)C(=O)NCC(C)(C)CNC(=O)c2ccc(Nc3nc(NC4(c5ccc(Cl)cc5)CC4)nc(OCC(F)(F)F)n3)cc2)c1 [Compound 1591]	0.01 to 10
CC(C)(CNC(=O)C(=O)Nc1ccc(CC(=O)N2CCCC2)cc1)CNC(=O)c1ccc(Nc2nc(NC3(c4ccc(Cl)cc4)CC3)nc(OCC(F)(F)F)n2)cc1 [Compound 1592]	0.01 to 10
CC(C)(CNC(=O)C(=O)Nc1ccc(-c2ccc(C(F)(F)F)cc2)cc1)CNC(=O)c1ccc(Nc2nc(NC3(c4ccc(Cl)cc4)CC3)nc(OCC(F)(F)F)n2)cc1 [Compound 1594]	0.01 to 10
CC(C)(CNC(=O)C(=O)Nc1ccc(-c2cscn2)cc1)CNC(=O)c1ccc(Nc2nc(NC3(c4ccc(Cl)cc4)CC3)nc(OCC(F)(F)F)n2)cc1 [Compound 1595]	0.01 to 10
COc1cc(OC)nc(-c2ccc(NC(=O)C(=O)NCC(C)(C)CNC(=O)c3ccc(Nc4nc(NC5(c6ccc(Cl)cc6)CC5)nc(OCC(F)(F)F)n4)cc3)cc2)n1 [Compound 1596]	0.01 to 10
Cc1cccc(NC(=O)C(=O)NCC(C)(C)CNC(=O)c2ccc(Nc3nc(NC4(c5ccc(Cl)cc5)CC4)nc(OCC(F)(F)F)n3)cc2)c1 [Compound 1597]	0.01 to 10
CC(C)(CNC(=O)C(=O)Nc1ccc(-c2csnn2)cc1)CNC(=O)c1ccc(Nc2nc(NC3(c4ccc(Cl)cc4)CC3)nc(OCC(F)(F)F)n2)cc1 [Compound 1598]	0.01 to 10
CN(C(=O)C(=O)NCC(C)(C)CNC(=O)c1ccc(Nc2nc(NC3(c4ccc(Cl)cc4)CC3)nc(OCC(F)(F)F)n2)cc1)c1ccc(F)cc1 [Compound 1599]	0.01 to 10
Cc1ccc(NC(=O)C(=O)NCC2(CNC(=O)c3ccc(Nc4nc(NC5(c6ccc(Cl)cc6)CC5)nc(OCC(F)(F)F)n4)cc3)CC2)cc1 [Compound 1600]	0.01 to 10
Cn1cnnc1-c1ccc(NC(=O)C(=O)NCC(C)(C)CNC(=O)c2ccc(Nc3nc(NC4(c5ccc(Cl)cc5)CC4)nc(OCC(F)(F)F)n3)cc2)cc1 [Compound 1601]	0.01 to 10
CN(C)c1ccc(NC(=O)C(=O)NCC(C)(C)CNC(=O)c2ccc(Nc3nc(NC4(c5ccc(Cl)cc5)CC4)nc(OCC(F)(F)F)n3)cc2)cc1 [Compound 1602]	0.01 to 10
CC(=O)c1ccc(NC(=O)C(=O)NCC(C)(C)CNC(=O)c2ccc(Nc3nc(NC4(c5ccc(Cl)cc5)CC4)nc(OCC(F)(F)F)n3)cc2)cc1 [Compound 1603]	0.01 to 10
C=Cc1ccc(NC(=O)C(=O)NCC(C)(C)CNC(=O)c2ccc(Nc3nc(NC4(c5ccc(Cl)cc5)CC4)nc(OCC(F)(F)F)n3)cc2)cc1 [Compound 1604]	0.01 to 10

same assay, conditions: Hepatitis C virus, Huh-7, read-out: Activity (EC50 class), HCV pseudoparticles (genotype 1a, H77C) in Huh7 cells; EC50 expressed as class A/B

Structure (SMILES)	EC50 [nM]
O=C(NCC1(CNC(=O)c2ccc(Nc3nc(NC4(c5ccc(Cl)cc5)CC4)nc(OCC(F)(F)F)n3)cc2)CC1)C(=O)Nc1cccc(F)c1 [Compound 3001]	0.01 to 10
CONC(=O)C(=O)NCC(C)(C)CNC(=O)c1ccc(Nc2nc(NC3(c4ccc(Cl)cc4)CC3)nc(OCC(F)(F)F)n2)cc1 [Compound 3002]	0.01 to 10
CC(C)(CNC(=O)C(=O)NCc1ccccc1Cl)CNC(=O)c1ccc(Nc2nc(NC3(c4ccc(Cl)cc4)CC3)nc(OCC(F)(F)F)n2)cc1 [Compound 3003]	0.01 to 10
CC(C)(CNC(=O)C(=O)NCc1cccc(F)c1)CNC(=O)c1ccc(Nc2nc(NC3(c4ccc(Cl)cc4)CC3)nc(OCC(F)(F)F)n2)cc1 [Compound 3004]	0.01 to 10
CC(C)(CNC(=O)C(=O)NCc1ccccc1F)CNC(=O)c1ccc(Nc2nc(NC3(c4ccc(Cl)cc4)CC3)nc(OCC(F)(F)F)n2)cc1 [Compound 3005]	0.01 to 10
COc1ccccc1NC(=O)C(=O)NCC(C)(C)CNC(=O)c1ccc(Nc2nc(NC3(c4ccc(Cl)cc4)CC3)nc(OCC(F)(F)F)n2)cc1 [Compound 3006]	0.01 to 10
COc1ccc(NC(=O)C(=O)NCC(C)(C)CNC(=O)c2ccc(Nc3nc(NC4(c5ccc(Cl)cc5)CC4)nc(OCC(F)(F)F)n3)cc2)cc1 [Compound 3007]	0.01 to 10
COc1cccc(NC(=O)C(=O)NCC(C)(C)CNC(=O)c2ccc(Nc3nc(NC4(c5ccc(Cl)cc5)CC4)nc(OCC(F)(F)F)n3)cc2)c1 [Compound 3008]	0.01 to 10
CC(C)(CNC(=O)C(=O)NCc1ccc(Cl)cc1)CNC(=O)c1ccc(Nc2nc(NC3(c4ccc(Cl)cc4)CC3)nc(OCC(F)(F)F)n2)cc1 [Compound 3009]	0.01 to 10
Cc1cc(NC(=O)C(=O)NCC(C)(C)CNC(=O)c2ccc(Nc3nc(NC4(c5ccc(Cl)cc5)CC4)nc(OCC(F)(F)F)n3)cc2)sn1 [Compound 3010]	0.01 to 10
CC(C)(CNC(=O)C(=O)Nc1ccc(C(F)(F)F)cc1)CNC(=O)c1ccc(Nc2nc(NC3(c4ccc(Cl)cc4)CC3)nc(OCC(F)(F)F)n2)cc1 [Compound 3011]	0.01 to 10
COc1cccc(CNC(=O)C(=O)NCC(C)(C)CNC(=O)c2ccc(Nc3nc(NC4(c5ccc(Cl)cc5)CC4)nc(OCC(F)(F)F)n3)cc2)c1 [Compound 3012]	0.01 to 10
CC(C)(CNC(=O)C(=O)NC1(c2ccc(F)cc2)CC1)CNC(=O)c1ccc(Nc2nc(NC3(c4ccc(Cl)cc4)CC3)nc(OCC(F)(F)F)n2)cc1 [Compound 3013]	0.01 to 10
COc1ccc(-c2ccccc2)c(NC(=O)C(=O)NCC(C)(C)CNC(=O)c2ccc(Nc3nc(NC4(c5ccc(Cl)cc5)CC4)nc(OCC(F)(F)F)n3)cc2)c1 [Compound 3014]	0.01 to 10
CC(C)(CNC(=O)C(=O)Nc1ccccc1-n1cccn1)CNC(=O)c1ccc(Nc2nc(NC3(c4ccc(Cl)cc4)CC3)nc(OCC(F)(F)F)n2)cc1 [Compound 3015]	0.01 to 10
CC(C)(CNC(=O)C(=O)Nc1ccccc1N1CCCCC1)CNC(=O)c1ccc(Nc2nc(NC3(c4ccc(Cl)cc4)CC3)nc(OCC(F)(F)F)n2)cc1 [Compound 3016]	0.01 to 10
CC(C)(CNC(=O)C(=O)NCc1ccc(-c2ccccc2)cc1)CNC(=O)c1ccc(Nc2nc(NC3(c4ccc(Cl)cc4)CC3)nc(OCC(F)(F)F)n2)cc1 [Compound 3017]	0.01 to 10
CC(C)(CNC(=O)C(=O)Nc1cccc(C(F)(F)F)c1)CNC(=O)c1ccc(Nc2nc(NC3(c4ccc(Cl)cc4)CC3)nc(OCC(F)(F)F)n2)cc1 [Compound 3019]	0.01 to 10
CC(C)(CNC(=O)C(=O)NCc1cccc(Cl)c1)CNC(=O)c1ccc(Nc2nc(NC3(c4ccc(Cl)cc4)CC3)nc(OCC(F)(F)F)n2)cc1 [Compound 3020]	0.01 to 10
CC(C)(CNC(=O)C(=O)NS(=O)(=O)c1ccccc1)CNC(=O)c1ccc(Nc2nc(NC3(c4ccc(Cl)cc4)CC3)nc(OCC(F)(F)F)n2)cc1 [Compound 3021]	0.01 to 10
CC(C)(CNC(=O)C(=O)Nc1ccc2cn[nH]c2c1)CNC(=O)c1ccc(Nc2nc(NC3(c4ccc(Cl)cc4)CC3)nc(OCC(F)(F)F)n2)cc1 [Compound 3022]	0.01 to 10
Cn1ccc(NC(=O)C(=O)NCC(C)(C)CNC(=O)c2ccc(Nc3nc(NC4(c5ccc(Cl)cc5)CC4)nc(OCC(F)(F)F)n3)cc2)n1 [Compound 3023]	0.01 to 10
Cn1ncc2ccc(NC(=O)C(=O)NCC(C)(C)CNC(=O)c3ccc(Nc4nc(NC5(c6ccc(Cl)cc6)CC5)nc(OCC(F)(F)F)n4)cc3)cc21 [Compound 3024]	0.01 to 10

Reference: patent publication US8916702B2 (priority 2012, dated 2014)
